Measurements as given in patent publication US20050267182A1, “Urea derivatives as FLT-3 modulators” (Ambit Biosciences Corporation, priority 2003, published 2005).

What was measured:
MV4,11 cells = experiment: FLT3 assay using MV4,11 cells (cellular proliferation, MTS); type: cell-based, human; details: cell assay code CS0001; for IC50: Homo sapiens, MV4-11
Method: The ability of FLT3 kinase inhibitors to inhibit cellular proliferation was also examined. MV4:11 was a cell line derived from a patient with acute myelogenous leukemia.
FLT3 Assay Using MV4,11 Cells
MV4,11 cells were grown in an incubator @ 37° C. in 5% CO2 in Medium 2 (RPMI, 10% FBS, 4 mM glutamine, Penn/Strep). The cells were counted daily and the cell density was kept between 1e5 and 8e5 cells/ml.
Day One: Enough cells were harvested for experiments to be conducted in 50 ml conical tubes. The harvested cells were spun at 500 g for 5 min at 4° C., the supernatant was then aspirated and the cells were resuspended in the starting volume of 1×PBS. The cells were again spun at 500 g for 5 min at 4° C. and the supernatant again aspirated. The cells were then resuspended in medium 3 (DMEM w/ glut, 10% FBS, Penn/Strep) to a density of 4e5 cells/ml and incubated (37° C. in 5% CO2 O/N.
Day Two: The cells were counted and enough medium 3 was added to decrease density to 2e5 cells/ml. 50 ul (10,000 cells) was aliquoted into each well of a 96 well optical plate using multichannel pipetman. The compound plate was then set up by aliquoting 3 μl of negative control (DMSO) into column 1 of a 96 well 300 ul polypropylene plate, aliquoting 3 μt of positive control (10 mM AB20121) into column 12 of plate, and aliquoting 3 μl of appropriate compounds from serial dilutions into columns 2-11. To each well, 150 μl of Medium 3 was added and 50 μl of compound/medium mixture from compound plate into rows of optical plate in duplicate. The cells were then incubated @ 37° C. in 5% CO2 for 3 days.
Day Five: MTS was thawed in a H2O bath. 20 μl of MTS was added to each well of optical plate and the cells were incubated (37° C. in 5% CO2 for 2 hours. The plate was then placed on a plate shaker for 30 seconds on high speed.

FLT3 = target: T1, FLT3 (Homo sapiens, UniProt P36888); experiment: Binding constant (Kd) measurement, phage-displayed kinase competition binding assay; details: for Binding Assay: FLT3(DKIN) / Kd: FLT3(DKIN) construct; for Binding Assay: FLT3(JMminus): FLT3(JMminus) construct
T1 construct: FLT3(DKIN); made in house
T1 sequence (P36888 610-943 limits assumed): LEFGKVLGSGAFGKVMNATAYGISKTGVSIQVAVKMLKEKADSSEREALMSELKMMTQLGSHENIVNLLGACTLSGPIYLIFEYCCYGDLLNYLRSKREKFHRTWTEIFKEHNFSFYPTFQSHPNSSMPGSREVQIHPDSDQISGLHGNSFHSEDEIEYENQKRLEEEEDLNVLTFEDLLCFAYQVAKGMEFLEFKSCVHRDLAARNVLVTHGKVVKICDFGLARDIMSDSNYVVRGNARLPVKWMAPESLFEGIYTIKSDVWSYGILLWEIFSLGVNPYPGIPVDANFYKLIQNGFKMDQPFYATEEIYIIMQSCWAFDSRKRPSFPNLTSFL
Excerpt: Binding Constant (Kd) Measurements for Small-Molecule-Kinase Interactions
The term “ND” represents non-determined values.

CS0002 = experiment: Cell Assay: CS0002; type: cell-based; details: cell assay code CS0002

| Cell Assay: CS0001:IC50 (MV4,11 cells) | Binding Assay: FLT3(DKIN) (FLT3) | SMILES | further results |
| --- | --- | --- | --- |
| + + + + | – | Cc1nc(-c2ccccc2)sc1C(=O)Nc1ccc(NC(=O)Nc2cc(C(C)(C)C)on2)cc1 [Compound N181] | Binding Assay: FLT3(JMminus) (FLT3): + + + +; Cell Assay: CS0002:IC50 (CS0002): + + |
| + + + | – | COc1cc(OC)nc(C2CCCCC2C(=O)Nc2ccc(NC(=O)Nc3cc(C(C)(C)C)on3)cc2)n1 (stereo not shown) [Compound N129] | Binding Assay: FLT3(JMminus) (FLT3): + + + |
| + + + | – | CC(=O)c1c(NC(=O)Nc2ccc(Cl)c(Cl)c2)sc2c1CCCC2 [Compound Z56] | Kd (FLT3): > 10 µM |
| + + + | – | CC(C)(C)c1cc(NC(=O)Nc2ccc(NC(=O)c3ccc(-n4cc(-c5ccncn5)cn4)cc3)cc2)no1 [Compound N76] | Binding Assay: FLT3(JMminus) (FLT3): + + + |
| + + + | + + + + | Cc1noc(-c2ccc(NC(=O)Nc3cc(C(C)(C)C)on3)cc2)n1 [Compound P9] | – |
| + + | – | Cc1sc(NC(=O)Nc2ccc(Cl)cc2)c(C(N)=O)c1C [Compound Z58] | Kd (FLT3): > 10 µM |
| + + + | + + + | CC(C)(C)c1cc(NC(=O)Nc2ccc(NC(=O)c3cnc4cc(C(F)(F)F)ccc4c3O)cc2)no1 [Compound N146] | – |
| + + + | + + + + | CC(C)(C)c1cc(NC(=O)Nc2ccc(C(=O)Nc3ccc(F)cc3F)cc2)no1 [Compound N153] | – |
| + + + | – | COc1cc(NC(=O)c2cn3nc(Cl)ccc3n2)ccc1NC(=O)Nc1cc(C(C)(C)C)on1 [Compound N171] | Binding Assay: FLT3(JMminus) (FLT3): + + |
| + + + | – | CC(C)(C)c1cc(NC(=O)Nc2ccc(NC(=O)c3csc(Cc4cccc(C(F)(F)F)c4)n3)cc2)no1 [Compound N180] | Binding Assay: FLT3(JMminus) (FLT3): + + + + |
| + + + | – | CC(C)(C)c1cc(C(=O)Nc2ccc(NC(=O)Nc3cc(C(C)(C)C)on3)cc2)n(-c2ccccc2)n1 [Compound N78] | Binding Assay: FLT3(JMminus) (FLT3): + + + |
| + + and + + + | + + + + | CC(C)(C)c1cc(NC(=O)Nc2ccc(NC(=O)c3cc(Cl)nnc3Cl)cc2)no1 [Compound N174] | Binding Assay: FLT3(JMminus) (FLT3): + + + |
| + + | – | COc1ccc(C(=O)c2c[nH]c(C(=O)Nc3ccc(NC(=O)Nc4cc(C(C)(C)C)on4)cc3)c2)cc1 [Compound N177] | Binding Assay: FLT3(JMminus) (FLT3): + + + |

Further lines, the compound ahead of its results:

| SMILES | Cell Assay: CS0001:IC50 (MV4,11 cells) | Binding Assay: FLT3(DKIN) (FLT3) | further results |
| --- | --- | --- | --- |
| Cn1nc(C(F)(F)F)c(C(=O)Nc2ccc(NC(=O)Nc3cc(C(C)(C)C)on3)cc2)c1Cl [Compound N68] | + + + | + + + + | Cell Assay: CS0002:IC50 (CS0002): + + + |
| CC(C)(C)c1cc(NC(=O)Nc2ccc(N3C(=O)c4ccccc4C3=O)cc2)no1 [Compound A57] | + + + + | – | Binding Assay: FLT3(JMminus) (FLT3): + + +; IC50 (CS0002): > 10 µM |
| COc1cc(OC)nc(N(C)c2cccc(C(=O)Nc3ccc(NC(=O)Nc4ccon4)cc3)c2)n1 [Compound N53] | + + + | + + + + | Cell Assay: CS0002:IC50 (CS0002): + + |
| CCc1ccc(C(=O)Nc2ccc(NC(=O)Nc3cc(C(C)(C)C)on3)cc2)cc1 [Compound N32] | + + + | + + + + | IC50 (CS0002): > 10 µM |
| CC(C)(C)c1cnc(CSc2cnc(NC(=O)Nc3ccon3)s2)o1 | + + + | – | Binding Assay: FLT3(JMminus) (FLT3): + + +; Cell Assay: CS0002:IC50 (CS0002): + + |
| CC(C)(C)c1cc(NC(=O)Nc2ccc(NC(=O)c3ccccc3Cl)cc2)no1 [Compound N23] | + + + + | + + + + | Cell Assay: CS0002:IC50 (CS0002): + + |
| CC(C)c1sc(Cl)nc1C(=O)Nc1ccc(NC(=O)Nc2cc(C(C)(C)C)on2)cc1 [Compound N75] | – | – | IC50 (MV4,11 cells): > 10 µM; Binding Assay: FLT3(JMminus) (FLT3): + + + +; Cell Assay: CS0002:IC50 (CS0002): + + |
| CC(C)(C)c1cc(NC(=O)Nc2ccc3c(c2)OCO3)no1 [Compound A56] | + + + | – | Binding Assay: FLT3(JMminus) (FLT3): + + +; IC50 (CS0002): > 10 µM |
| CC(C)(C)c1cc(NC(=O)Nc2ccc(NC(=O)c3cc4cc(Br)ccc4s3)cc2)no1 [Compound N17] | + + + + | + + + + | Cell Assay: CS0002:IC50 (CS0002): + + |
| CC(C)(C)c1cc(NC(=O)Nc2ccc(NC(=O)c3cc([N+](=O)[O-])ccn3)cc2)no1 [Compound N7] | – | + + + + | IC50 (CS0002): > 10 µM |
| CC(C)(C)c1cc(NC(=O)Nc2ccc(NC(=O)Cc3sc(-c4ccc(Cl)cc4)nc3-c3ccccc3)cc2)no1 [Compound N66] | + + + | + + + + | – |
| CC(C)Oc1ccc(NC(=O)Nc2cc(C(C)(C)C)no2)cc1 [Compound G33] | + + + | + + + + | – |
| CC(C)(C)c1cc(NC(=O)Nc2ccncc2)no1 [Compound A53] | + + | + + | – |
| CC(C)(C)c1cc(NC(=O)Nc2ccc(OCc3ccc4nonc4c3)cc2)no1 [Compound G55] | + + + | + + + + | – |
| Cn1nc(-c2ccccc2)c(C(=O)Nc2ccc(NC(=O)Nc3cc(C(C)(C)C)on3)cc2)c1Cl [Compound N11] | + + | + + | – |
| CC(C)(C)c1cc(NC(=O)Nc2ccc(NC(=O)c3csnn3)cc2)no1 [Compound N14] | + + + | + + + + | – |
| CC(C)(C)c1cc(NC(=O)Nc2ccc(NC(=O)C3=Cc4cc(F)cc(S(C)(=O)=O)c4C3)cc2)no1 [Compound N62] | + + + | + + + + | – |
| COC(=O)c1ccc(C(=O)Nc2ccc(NC(=O)Nc3cc(C(C)(C)C)on3)cc2)nc1 [Compound N12] | + + + | + + + + | – |
| CC(C)(C)c1cc(NC(=O)Nc2ccc(OCc3ccc(OC(F)(F)F)cc3)cc2)no1 [Compound G5] | + + + | + + + + | – |
| CC(C)(C)c1cc(NC(=O)Nc2ccc(NC(=O)Cc3ccccc3)cc2)no1 [Compound N35] | + + | + + + | – |
| CCOc1ccc(NC(=O)Nc2cc(C(C)(C)C)on2)cc1 [Compound G20] | + + + + | + + + + | – |
| Cn1nc(C(C)(C)C)cc1NC(=O)Nc1ccc(OCc2ccccc2)cc1 [Compound H2] | + + + + | + + + + | – |
| CC(C)(C)c1cc(NC(=O)Nc2ccc(NC(=O)C(N)Cc3ccccc3F)cc2)no1 (stereo not shown) [Compound N42] | + + | + + + | – |
| Cc1nc(C(=O)Nc2ccc(NC(=O)Nc3cc(C(C)(C)C)on3)cc2)c(C(F)(F)F)o1 [Compound N55] | + + + | + + + + | – |
| C=CCOc1ccc(NC(=O)Nc2cc(C(C)(C)C)no2)cc1 [Compound G32] | + + + + | + + + + | – |
| CC(C)(C)c1cc(NC(=O)Nc2ccc(OCCN3CCSCC3)cc2)no1 [Compound G53] | + + | + + + | – |
| CC(C)(C)c1cc(NC(=O)Nc2ccc(NC(=O)c3ccc(SC(F)(F)F)cc3)cc2)no1 [Compound N33] | – | + + + | IC50 (MV4,11 cells): > 10 µM |
| CC(C)(C)c1cc(NC(=O)Nc2ccc(NC(=O)c3c(F)cccc3F)cc2)no1 [Compound N37] | + + | + + + | – |
| CC(C)(C)c1cc(NC(=O)Nc2ccc(OCc3ccccc3-c3ccccc3)cc2)no1 [Compound G8] | + + | + + + | – |
| CC(C)(C)c1cc(NC(=O)Nc2ccc(NC(=O)c3cc(Cl)cc(Cl)c3)cc2)no1 [Compound N29] | + + + | + + + | – |
